Experimental data taken from patent US20080293646A1, “MACROLIDES” (Pfizer Inc, priority 2007, published 2008).
In brackets after ≈: the same amount, converted by molar mass. Counter-ions that a name gives are not always drawn. Like-named read-outs stand apart in the source and are kept apart here.

Legend:
S. pneumoniae ermB = assay: MIC, microtiter broth dilution, S. pneumoniae ermB isolates; format: cell-based, Streptococcus pneumoniae; details: for MIC50 / MIC90: Streptococcus pneumoniae
[1] = tested on: H. influenzae Telithromycin (intermediate); assay: MIC, microtiter broth dilution, telithromycin-intermediate H. influenzae; format: cell-based, Haemophilus influenzae; details: for MIC50 / MIC90: Haemophilus influenzae
CYP3A = CYP3A (Homo sapiens, UniProt P08684); assay: CYP3A time-dependent inhibition in human liver microsomes (midazolam probe); details: pooled human liver microsomes, pH 7.4, probe midazolam (30 μM, 1'-hydroxymidazolam formation)
S. pneumoniae mefA = assay: MIC, microtiter broth dilution, S. pneumoniae mefA isolates; format: cell-based, Streptococcus pneumoniae; details: for MIC50 / MIC90: Streptococcus pneumoniae
[2] = HLM ER (human liver microsomes extraction ratio); format: in vitro ADME; details: 1 μM compound, NADPH, 37° C., <0.32 is lower limit of assay
Experimental: HLM ER: (human liver microsomes extraction ratio). This assay measures clearance of compound over time in the human liver microsome system due to NADPH-dependent oxidative metabolism. […] Assay Procedure: […] The reaction mixture was pre-incubated at 37° C. for 5 minutes before adding betanicotinamide adenine dinucleotide phosphate—reduced tetrasodium salt (NADPH) (1.0 mM). Aliquots of the incubation mixture were removed at 0, 5, 10, 20, 30 and 45 minutes. The aliquots were quenched in acetonitrile containing internal standard. Samples were centrifuged and the resulting supernatant analyzed by liquid chromatography/mass spectrometry (LC/MS/MS), with a Sciex API4000 using multiple reaction monitoring optimized for each test compound. […] The first order disappearance rate constant was determined for each incubation by plotting natural log(LN) substrate concentration (peak area ratio, drug/internal standard) against incubation time and determining the slope of the regression line (k), using data where an accurate first order decay curve could be obtained. Predicted hepatic clearances (CLH) and extraction ratios were calculated according to the following equations: […] where the following constants were: Liver Weight=21 g/kg [human] Microsomal Protein in Incubation=1.52 mg/mL Liver Protein=45 mg/g [human] Liver Blood Flow (QH)=20 mL/min/kg [human]

S. pneumoniae emB/mefA = assay: MIC, microtiter broth dilution, S. pneumoniae ermB/mefA isolates; format: cell-based, Streptococcus pneumoniae; details: for MIC50 / MIC90: Streptococcus pneumoniae
[3] = tested on: H. influenzae Telithromycin (susceptible); assay: MIC, microtiter broth dilution, telithromycin-susceptible H. influenzae; format: cell-based, Haemophilus influenzae; details: for MIC50 / MIC90: Haemophilus influenzae
M. catarrhalis = assay: MIC, microtiter broth dilution, M. catarrhalis; format: cell-based, Moraxella catarrhalis; details: for MIC50 / MIC90: Moraxella catarrhalis
S. pyogenes mefA = assay: MIC, microtiter broth dilution, S. pyogenes mefA isolates; format: cell-based, Streptococcus pyogenes; details: for MIC50 / MIC90: Streptococcus pyogenes
L. pneumophila = assay: microbe, parasite or virus in culture; format: cell-based, Legionella pneumophila; details: for MIC Range: L. pneumophila, n=10 isolates; for MIC50 / MIC90: Legionella pneumophila
[4] = S. pneumoniae ermB, n=34 isolates
[5] = H. influenzae telithromycin (intermediate), n=12 isolates
[6] = S. pneumoniae mefA, n=39 isolates
[7] = S. pneumoniae emB/mefA, n=45 isolates
[8] = H. influenzae telithromycin (susceptible), n=82 isolates
[9] = S. pyogenes mefA, n=23 isolates
[10] = S. pyogenes mefA, n=23 isolates, read-out: MIC50
[11] = S. pyogenes mefA, n=23 isolates, read-out: MIC90
[12] = S. pneumoniae ermB, n=34 isolates, read-out: MIC50
[13] = S. pneumoniae ermB, n=34 isolates, read-out: MIC90
[14] = H. influenzae telithromycin (intermediate), n=12 isolates, read-out: MIC50
[15] = H. influenzae telithromycin (intermediate), n=12 isolates, read-out: MIC90
[16] = S. pneumoniae mefA, n=39 isolates, read-out: MIC90
[17] = S. pneumoniae emB/mefA, n=45 isolates, read-out: MIC50
[18] = S. pneumoniae emB/mefA, n=45 isolates, read-out: MIC90
[19] = H. influenzae telithromycin (susceptible), n=82 isolates, read-out: MIC50
[20] = H. influenzae telithromycin (susceptible), n=82 isolates, read-out: MIC90
[21] = M. catarrhalis, n=30 isolates, read-out: MIC90

Chain of CYP3A (P08684 2-503): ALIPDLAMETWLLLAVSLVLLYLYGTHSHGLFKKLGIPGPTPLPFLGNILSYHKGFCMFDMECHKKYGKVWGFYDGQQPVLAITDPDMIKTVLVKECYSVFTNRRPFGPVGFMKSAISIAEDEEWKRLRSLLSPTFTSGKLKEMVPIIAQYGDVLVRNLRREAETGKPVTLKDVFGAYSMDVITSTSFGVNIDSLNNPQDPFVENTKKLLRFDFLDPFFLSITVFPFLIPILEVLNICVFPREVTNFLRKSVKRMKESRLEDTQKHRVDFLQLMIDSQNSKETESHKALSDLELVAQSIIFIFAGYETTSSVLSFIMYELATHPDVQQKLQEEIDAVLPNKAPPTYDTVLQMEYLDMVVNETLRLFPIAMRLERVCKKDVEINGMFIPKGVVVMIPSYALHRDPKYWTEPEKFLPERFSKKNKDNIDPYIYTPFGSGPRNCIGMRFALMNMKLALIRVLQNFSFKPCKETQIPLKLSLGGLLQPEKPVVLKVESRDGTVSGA

| Compound | MIC Range (S. pneumoniae ermB; [4]) | MIC Range [1, 5] [µg/mL] | MIC Range (S. pneumoniae mefA; [6]) | MIC50 (S. pneumoniae mefA) [µg/mL] | MIC Range (S. pneumoniae emB/mefA; [7]) | MIC Range [3, 8] [µg/mL] | MIC Range (M. catarrhalis; M. catarrhalis, n=30 isolates) [µg/mL] | MIC50 (M. catarrhalis) [µg/mL] | MIC Range (S. pyogenes mefA; [9]) [µg/mL] | MIC Range (L. pneumophila) [µg/mL] | MIC50 (L. pneumophila) [µg/mL] | MIC90 (L. pneumophila) [µg/mL] | MIC50 (S. pyogenes mefA; [10]) [µg/mL] | MIC90 (S. pyogenes mefA; [11]) [µg/mL] | MIC50 (S. pneumoniae ermB; [12]) [µg/mL] | MIC90 (S. pneumoniae ermB; [13]) [µg/mL] | MIC50 [1, 14] [µg/mL] | MIC90 [1, 15] [µg/mL] | MIC90 (S. pneumoniae mefA; [16]) [µg/mL] | MIC50 (S. pneumoniae emB/mefA; [17]) [µg/mL] | also measured |
| --- | --- | --- | --- | --- | --- | --- | --- | --- | --- | --- | --- | --- | --- | --- | --- | --- | --- | --- | --- | --- | --- |
| CC[C@H]1OC(=O)[C@H](C)C(=O)[C@H](C)[C@@H](O[C@@H]2O[C@H](C)C[C@H](N(C)C)[C@H]2O)[C@](C)(OC)C[C@@H](C)C(=O)[C@H](C)[C@H]2N(C3CN(Cc4c(O)cnc5cccnc45)C3)C(=O)O[C@]12C [Example 1, 3-Descladinosyl-11,12-dideoxy-6-O-methyl-3-oxo-12,11-(oxycarbonyl-(1-((3-hydroxy-[1,5]-naphthyridin-4-yl)methyl)-azetidin-3-yl)-imino)-erythromycin A Fumarate] | ≦0.0625-2 μg/mL | 4 to 8 | ≦0.06-1 μg/mL | 0.125 | ≦0.0625-1 μg/mL | 1 to 8 | 0.008 to 0.25 | 0.03 | 0.5 to 1 | 0.008 to 0.03 | 0.016 | 0.03 | – | – | – | – | – | – | – | – | MIC50 (S. pneumoniae ermB): ≤ 0.0625 µg/mL; MIC90 (S. pneumoniae ermB): 1 µg/mL; MIC50 [1]: 4 µg/mL; MIC90 [1]: 8 µg/mL; Ki (CYP3A): 24 µM; kinact (CYP3A): 0.0004 s⁻¹; MIC90 (S. pneumoniae mefA): 0.5 µg/mL; HLM ER [2]: <0.32; MIC50 (S. pneumoniae emB/mefA): 0.5 µg/mL; MIC90 (S. pneumoniae emB/mefA): 1 µg/mL; MIC50 [3]: 2 µg/mL; MIC90 [3]: 4 µg/mL; MIC90 (M. catarrhalis): 0.06 µg/mL; MIC50 (S. pyogenes mefA): 0.5 µg/mL; MIC90 (S. pyogenes mefA): 1 µg/mL |
| CC1(C)S[C@@H]2[C@H](NC(=O)[C@H](N)c3ccc(O)cc3)C(=O)N2[C@H]1C(=O)O [amoxicillin] | – | – | – | – | – | – | – | – | 0.004 to 0.03 | – | – | – | 0.008 (≈ 0.0219 µM) | 0.016 (≈ 0.0438 µM) | – | – | – | – | – | – | – |
| CC[C@H]1OC(=O)[C@H](C)[C@@H](O[C@H]2C[C@@](C)(OC)[C@@H](O)[C@H](C)O2)[C@H](C)[C@@H](O[C@@H]2O[C@H](C)C[C@H](N(C)C)[C@H]2O)[C@](C)(O)C[C@@H](C)CN(C)[C@H](C)[C@@H](O)[C@]1(C)O [azithromycin] | – | – | – | – | – | – | – | – | – | 0.03 to 0.06 | 0.06 (≈ 0.0801 µM) | 0.06 (≈ 0.0801 µM) | – | – | – | – | – | – | – | – | – |
| CC[C@H]1OC(=O)[C@H](C)[C@@H](O[C@H]2C[C@@](C)(OC)[C@@H](O)[C@H](C)O2)[C@H](C)[C@@H](O[C@@H]2O[C@H](C)C[C@H](N(C)C)[C@H]2O)[C@](C)(O)C[C@@H](C)C(=O)[C@H](C)[C@@H](O)[C@]1(C)O [erythromycin] | – | 8 to 16 | 2 to 16 µg/mL | – | – | 1 to 16 | 0.03 to 1 | – | 8 to 32 | – | – | – | 8 (≈ 10.9 µM) | 16 (≈ 21.8 µM) | > 64 | > 64 | 16 (≈ 21.8 µM) | 16 (≈ 21.8 µM) | 16 (≈ 21.8 µM) | > 64 | MIC50 (S. pneumoniae mefA; S. pneumoniae mefA, n=39 isolates, read-out: MIC50): 8 µg/mL (≈ 10.9 µM); MIC90 (S. pneumoniae emB/mefA; [18]): > 64 µg/mL; MIC50 [3, 19]: 8 µg/mL (≈ 10.9 µM); MIC90 [3, 20]: 16 µg/mL (≈ 21.8 µM); MIC50 (M. catarrhalis; M. catarrhalis, n=30 isolates, read-out: MIC50): 0.25 µg/mL (≈ 0.341 µM); MIC90 (M. catarrhalis; [21]): 0.25 µg/mL (≈ 0.341 µM) |
| CC[C@H]1OC(=O)[C@H](C)C(=O)[C@H](C)[C@@H](O[C@@H]2O[C@H](C)C[C@H](N(C)C)[C@H]2O)[C@](C)(OC)C[C@@H](C)C(=O)[C@H](C)[C@H]2N(CCCCn3cnc(-c4cccnc4)c3)C(=O)O[C@]12C [telithromycin] | ≦0.0625-1 μg/mL | 8 (≈ 9.85 µM) | ≦0.06-0.5 μg/mL | 0.125 (≈ 0.154 µM) | ≦0.0625-1 μg/mL | 0.25 to 4 | 0.006 to 0.5 | 0.125 (≈ 0.154 µM) | 0.25 to 2 | 0.016 to 0.03 | 0.016 (≈ 0.0197 µM) | 0.016 (≈ 0.0197 µM) | 0.5 (≈ 0.616 µM) | 0.5 (≈ 0.616 µM) | ≤ 0.0625 | 0.5 (≈ 0.616 µM) | 8 (≈ 9.85 µM) | 8 (≈ 9.85 µM) | 0.5 (≈ 0.616 µM) | 0.5 (≈ 0.616 µM) | MIC90 (S. pneumoniae emB/mefA; [18]): 0.5 µg/mL (≈ 0.616 µM); MIC50 [3, 19]: 1 µg/mL (≈ 1.23 µM); MIC90 [3, 20]: 4 µg/mL (≈ 4.93 µM); MIC90 (M. catarrhalis; [21]): 0.25 µg/mL (≈ 0.308 µM) |
